Measurements from patent publication US8747809B2, “Single diastereomers of 4-fluoroglutamine and methods of their preparation and use” (The Trustees Of The University Of Pennsylvania, priority 2009, dated 2014).
“Also recorded” adds a separate entry of the source. Each block holds one molecule with its values, some of them ahead of it.

How the values were obtained:
[1] = system: 9 L tumor cell line; assay: In vitro cell uptake studies of the four 4-[18F]F-glutamine isomers; assay type: cell-based, rat; conditions: 18F-labeled isomer, 37° C., 5-120 min, compared to [3H]glutamine
Procedure: Cell uptake of four possible isomers was evaluated using 9 L tumor cell line. The cell uptake results (% dose/100 μg protein) were compared to that of [^3H] glutamine.
(§1) Because of this observation, we decided only to further investigate the (2S,4R) isomer of [^18F]4-FGln, 1. In vitro cell uptake inhibition studies were conducted in 9 L cells in order to test the specificity of [^18F]4-FGln (2S,4R), 1. Cold L-glutamine and L-serine served as the positive control inhibitors for the glutamine transporters. L-glutamine inhibits system N transporter and L-serine inhibits the ASC transporter. Three different concentrations were tested for each inhibitor ranging from 0.5 mM to 5 mM. After 30 minutes of co-incubation of L-glutamine and [^18F] […] Cold MeAIB served as the negative control, which inhibits system A transporter.
(§2) The cellular uptake of each of the four 4-[^18F]F-glutamine isomers (2S,4R), (2S,4S), (2R,4S) and (2R,4R) were studied in (9 L) rat brain gliosarcoma cells. L-[3,4-^3H(N)]-glutamine, >97%, 250 μCi (9.25 MBq), was purchased from Perkin Elmer and was used as a control for all of the cellular uptake experiments conducted. […] All four of the 4-[^18F]F-glutamine isomers and the L-[3,4-^3H(N)]-glutamine was dissolved in PBS solution and was added to each well (500,000 cpm/mL/well) and incubated at 37° C. for 5, 30, 60, 120 min. At the end of the incubation period, the wells were aspirated and then the residual cells were washed 3 times with 1 mL ice cold PBS without Ca^2+ and Mg^2+. After washing with cold PBS, 350 μL 1M NaOH was used to lyse the cells. The lysed cells were collected onto filter paper. The filter papers were placed in scintillation vials and counting fluid was added (7 mL ecolite+) and the vials were then counted with a beta counter 18-24 h later. For dual-isotope studies using 4-[^18F]F-glutamine isomers and L-[3,4-^3H(N)]-glutamine, the vials were counted first using a gamma counter to obtain ^18F counts. The beta counts were then obtained one day later after the ^18F was fully decayed. 100 μL of the cell lysate was used for the determination of the protein concentration by Lowry method.

[2] = system: 9 L cells; assay: In vitro inhibition studies of 4-[18F]F-glutamine (2S,4R) uptake; assay type: cell-based, rat; conditions: for effect of inhibitor on tracer uptake / transporter (in words): 0.5 mM to 5 mM; for uptake of [18F]4-FGln (2S,4R) in presence of inhibitor: 30 minutes co-incubation, 5 mM stated for MeAIB, control 3.56
Procedure: as §1, §2
To test the specificity of the 4-[^18F]F-glutamine (2S,4R) isomer, inhibition studies were conducted using 9 L cells. The tracer was incubated at 37° C. for 30 min. The cells were processed as previously described as above. Cold L-glutamine and L-Serine served as the positive control inhibitors for the glutamine transporters. L-glutamine inhibits system N transporter and L-Serine inhibits the ASC transporter. Cold MeAIB served as the negative control, which inhibits system A transporter. Three different concentrations were tested for each inhibitor ranging from 0.5 mM to 5 mM.

[3] = In vivo biodistribution study in normal mice; conditions: for % Dose/Gram, Blood / % Dose/Gram, Bone / % Dose/Gram, Brain / % Dose/Gram, Heart / % Dose/Gram, Kidney / % Dose/Gram, Liver / % Dose/Gram, Lung / % Dose/Gram, Muscle / % Dose/Gram, Pancreas / % Dose/Gram, Skin / % Dose/Gram, Spleen: normal ICR mice, n = 5
Procedure: To test the [^18F]-4F-glutamine isomers as a novel tumor PET imaging agents, we tested the [^18F]-4F-glutamine (2S,4R) (1) in normal ICR mice weighing 20-25 grams. 5 mice per group were used for the biodistrubution study. The mice were put under anesthesia with the use of isoflurane and 0.15 mL saline solution containing 25 μCi of each isomer was injected via the lateral tail vein. The mice were sacrificed at 2, 30, 60, 120 and 240 minutes post-injection by cardiac excision while under isoflurane anesthesia. The organs of interest were removed, weighed and the radioactivity was counted with a gamma counter (Packard Cobra). The percent dose per gram was calculated by a comparison of the tissue activity counts to counts of 1.0% of the initial dose. The initial dose consists of 100 times diluted aliquots of the injected material measured at the same rate.

[4] = system: M/tomND spontaneous human mammary tumors; assay: Dynamic small animal PET (A-PET) imaging; assay type: in vivo, mice; conditions: ~300 μCi via lateral tail vein, 120 minutes imaging, myc gene up-regulated
Procedure: Dynamic small animal PET (A-PET) imaging studies were conducted with 4-[^18F]F-glutamine (2S,4R) isomer. All scans were performed on a dedicated animal PET scanner (Mosaic by Phillips) (Surti, 2005). Transgenic mice bearing M/tomND spontaneous human mammary tumors were used in this study. There are many advantages to using this transgenic mouse model. A doxycycline sensitive promoter genetically engineers these mice to express the myc gene. These tumors spontaneously arise vs. traditional xenograph tumors. […] When doxycycline is removed, the myc gene is down regulated. This model was chosen because these compounds will allow a direct correlation between true glutamine uptake and the level of myc gene expression.
Glutamine uptake within the M/tomND tumor was examined by injecting ˜300 μCi of the [^18F]-4F-glutamine (2S,4R) isomer via the lateral tail vein. Imaging commenced immediately after the injection of the tracer and continued for a time period of 120 minutes.

SMILES: NC(=O)[C@H](F)C[C@H](N)C(=O)O [Compound 1, (2S,4R)-2,5-Diamino-4-fluoro-5-oxopentanoic acid]
cell uptake in 9 L cells (in words) ([1]; listed as 4-FGln (2S,4R)): high uptake; also recorded: excellent uptake

SMILES: NC(=O)[C@@H](F)C[C@@H](N)C(=O)O [Compound 3, (2R,4S)-4-FGln]
cell uptake in 9 L cells (in words) [1]: lower cell uptake

SMILES: N[C@@H](CO)C(=O)O [L-serine]
effect of inhibitor on tracer uptake / transporter (in words) ([2]; 30 min): considerable inhibition
uptake of [18F]4-FGln (2S,4R) in presence of inhibitor [2]: 1.41 % dose/100 ug protein

SMILES: NC(=O)CC[C@H](N)C(=O)O [L-glutamine]
effect of inhibitor on tracer uptake / transporter (in words) ([2]; 30 min): clearly inhibited
uptake of [18F]4-FGln (2S,4R) in presence of inhibitor [2]: 0.49 % dose/100 ug protein
inhibition at 5000 µM ([2]; Rattus norvegicus, 0.5 h, 30 min, [5 mM], read-out: inhibition of [18F]4-FGln (2S,4R) uptake): ~90%

SMILES: NC(=O)[C@H](F)C[C@@H](N)C(=O)O [Compound 4, (2R,4R)-4-FGln]
cell uptake in 9 L cells (in words) [1]: lower cell uptake

SMILES: CNC(C)(C)C(=O)O [MeAIB]
effect of inhibitor on tracer uptake / transporter (in words) ([2]; 30 min): little to no effect
uptake of [18F]4-FGln (2S,4R) in presence of inhibitor [2]: 3.69 % dose/100 ug protein

% Dose/Gram, Blood ([3]; 2 min post-injection, iv): 6.19 ± 0.83 % Dose/Gram
% Dose/Gram, Blood ([3]; 30 min post-injection, iv): 2.72 ± 0.17 % Dose/Gram
% Dose/Gram, Blood ([3]; 60 min post-injection, iv): 2.05 ± 0.16 % Dose/Gram
% Dose/Gram, Blood ([3]; 120 min post-injection, iv): 0.83 ± 0.12 % Dose/Gram
% Dose/Gram, Blood ([3]; 240 min post-injection, iv): 0.48 ± 0.06 % Dose/Gram
% Dose/Gram, Bone ([3]; 2 min post-injection, iv): 3.93 ± 0.37 % Dose/Gram
% Dose/Gram, Bone ([3]; 30 min post-injection, iv): 5.64 ± 0.69 % Dose/Gram
% Dose/Gram, Bone ([3]; 60 min post-injection, iv): 7.93 ± 1.02 % Dose/Gram
% Dose/Gram, Bone ([3]; 120 min post-injection, iv): 14.4 ± 1.31 % Dose/Gram
% Dose/Gram, Bone ([3]; 240 min post-injection, iv): 19.4 ± 0.50 % Dose/Gram
% Dose/Gram, Brain ([3]; 2 min post-injection, iv): 0.54 ± 0.05 % Dose/Gram
% Dose/Gram, Brain ([3]; 30 min post-injection, iv): 0.51 ± 0.05 % Dose/Gram
% Dose/Gram, Brain ([3]; 60 min post-injection, iv): 0.53 ± 0.07 % Dose/Gram
% Dose/Gram, Brain ([3]; 120 min post-injection, iv): 0.57 ± 0.05 % Dose/Gram
% Dose/Gram, Brain ([3]; 240 min post-injection, iv): 0.45 ± 0.06 % Dose/Gram
% Dose/Gram, Heart ([3]; 2 min post-injection, iv): 4.31 ± 0.32 % Dose/Gram
% Dose/Gram, Heart ([3]; 30 min post-injection, iv): 3.16 ± 0.25 % Dose/Gram
% Dose/Gram, Heart ([3]; 60 min post-injection, iv): 2.86 ± 0.47 % Dose/Gram
% Dose/Gram, Heart ([3]; 120 min post-injection, iv): 1.86 ± 0.24 % Dose/Gram
% Dose/Gram, Heart ([3]; 240 min post-injection, iv): 1.24 ± 0.19 % Dose/Gram
% Dose/Gram, Kidney ([3]; 2 min post-injection, iv): 16.1 ± 1.03 % Dose/Gram
% Dose/Gram, Kidney ([3]; 30 min post-injection, iv): 9.93 ± 0.52 % Dose/Gram
% Dose/Gram, Kidney ([3]; 60 min post-injection, iv): 7.60 ± 0.84 % Dose/Gram
% Dose/Gram, Kidney ([3]; 120 min post-injection, iv): 2.15 ± 0.34 % Dose/Gram
% Dose/Gram, Kidney ([3]; 240 min post-injection, iv): 1.25 ± 0.21 % Dose/Gram
% Dose/Gram, Liver ([3]; 2 min post-injection, iv): 6.92 ± 0.92 % Dose/Gram
% Dose/Gram, Liver ([3]; 30 min post-injection, iv): 6.23 ± 0.50 % Dose/Gram
% Dose/Gram, Liver ([3]; 60 min post-injection, iv): 5.70 ± 0.62 % Dose/Gram
% Dose/Gram, Liver ([3]; 120 min post-injection, iv): 2.46 ± 0.26 % Dose/Gram
% Dose/Gram, Liver ([3]; 240 min post-injection, iv): 1.30 ± 0.18 % Dose/Gram
% Dose/Gram, Lung ([3]; 2 min post-injection, iv): 7.15 ± 0.76 % Dose/Gram
% Dose/Gram, Lung ([3]; 30 min post-injection, iv): 5.36 ± 0.49 % Dose/Gram
% Dose/Gram, Lung ([3]; 60 min post-injection, iv): 4.37 ± 0.28 % Dose/Gram
% Dose/Gram, Lung ([3]; 120 min post-injection, iv): 1.69 ± 0.10 % Dose/Gram
% Dose/Gram, Lung ([3]; 240 min post-injection, iv): 1.03 ± 0.15 % Dose/Gram
% Dose/Gram, Muscle ([3]; 2 min post-injection, iv): 1.62 ± 0.10 % Dose/Gram
% Dose/Gram, Muscle ([3]; 30 min post-injection, iv): 2.48 ± 0.16 % Dose/Gram
% Dose/Gram, Muscle ([3]; 60 min post-injection, iv): 2.86 ± 0.34 % Dose/Gram
% Dose/Gram, Muscle ([3]; 120 min post-injection, iv): 1.81 ± 0.26 % Dose/Gram
% Dose/Gram, Muscle ([3]; 240 min post-injection, iv): 0.94 ± 0.15 % Dose/Gram
% Dose/Gram, Pancreas ([3]; 2 min post-injection, iv): 17.2 ± 1.00 % Dose/Gram
% Dose/Gram, Pancreas ([3]; 30 min post-injection, iv): 19.7 ± 2.16 % Dose/Gram
% Dose/Gram, Pancreas ([3]; 60 min post-injection, iv): 17.5 ± 2.28 % Dose/Gram
% Dose/Gram, Pancreas ([3]; 120 min post-injection, iv): 9.57 ± 1.22 % Dose/Gram
% Dose/Gram, Pancreas ([3]; 240 min post-injection, iv): 5.92 ± 0.87 % Dose/Gram
% Dose/Gram, Skin ([3]; 2 min post-injection, iv): 2.72 ± 0.05 % Dose/Gram
% Dose/Gram, Skin ([3]; 30 min post-injection, iv): 4.01 ± 0.24 % Dose/Gram
% Dose/Gram, Skin ([3]; 60 min post-injection, iv): 2.94 ± 0.68 % Dose/Gram
% Dose/Gram, Skin ([3]; 120 min post-injection, iv): 2.17 ± 0.16 % Dose/Gram
% Dose/Gram, Skin ([3]; 240 min post-injection, iv): 1.25 ± 0.13 % Dose/Gram
% Dose/Gram, Spleen ([3]; 2 min post-injection, iv): 7.51 ± 0.44 % Dose/Gram
% Dose/Gram, Spleen ([3]; 30 min post-injection, iv): 5.39 ± 0.72 % Dose/Gram
% Dose/Gram, Spleen ([3]; 60 min post-injection, iv): 4.22 ± 0.38 % Dose/Gram
% Dose/Gram, Spleen ([3]; 120 min post-injection, iv): 2.02 ± 0.16 % Dose/Gram
% Dose/Gram, Spleen ([3]; 240 min post-injection, iv): 1.15 ± 0.14 % Dose/Gram
pancreas to liver ratio ([3]; after 30 min, normal mice, iv): 4 to 1
tumor uptake in PET images (in words) [4]: taken up in the tumor sites
SMILES: NC(=O)[C@H]([18F])C[C@H](N)C(=O)O [Compound 1, (2S,4R)-2,5-Diamino-4-fluoro-5-oxopentanoic acid]
in vivo de-fluorination (in words) ([3]; inferred from increasing bone uptake at later time points): likely that there was in vivo de-fluorination
cell uptake in 9 L cells (in words) [1]: highest uptake
uptake of [18F]4-FGln (2S,4R) without inhibitor (control) ([2]; 30 min, 37° C.): 3.56 % dose/100 ug protein
